These results are taken from US20140105921A1, “Prodrugs of Peptide Epoxy Ketone Protease Inhibitors” (Onyx Therapeutics, Inc., priority 2012, published 2014).

Data set [1] has as its target c20s (Homo sapiens, UniProt P20618+P28074). Nature of the data set: Purified PI, IC50 against c20s. The format is biochemical.
Data set [2] has as its target i20s (Homo sapiens, UniProt P20618+P28062). Nature of the data set: Purified PI, IC50 against i20s. The format is biochemical.
Data set [3] in a line: Buffer Conversion Rates of Prodrugs to Compound B. The format is physicochemical.
Data set [4] in a line: Conversion of Prodrugs by Human Liver S9. The format is in vitro ADME.
The mark [5] stands for this setting: Table G, read-out: IC50 Slope c20s.
Setting [6] is: Table G, read-out: IC50 Slope i20s.
Where [7] appears, read: Table G, value marked *: did not converge, read-out: IC50 Slope i20s.
Setting [8] is: Table G, value marked *: did not converge, read-out: IC50 Slope c20s.
Setting [9] is: IC50 60 minute point c20s, Table H, 60 minute point.
The mark [10] stands for this setting: Table H, read-out: IC50 Slope c20s.
[11] abbreviates: IC50 60 minute point i20s, Table H, 60 minute point.
[12] abbreviates: Table H, read-out: IC50 Slope i20s.

Where two headings read alike, the source gives them in different places.

On to `CC(C)C[C@H](NC(=O)[C@H](CCc1ccccc1)NC(=O)C[N+]1(COC(=O)C(C)(C)C)CCOCC1)C(=O)N[C@@H](Cc1ccccc1)C(=O)N[C@@H](CC(C)C)C(=O)[C@@]1(C)CO1`, for which the half-inhibitory concentration (IC50) (in general, the concentration needed to halve the response being measured) is 8.91 nM in data set [1] (setting [5]) and 49.8 nM in data set [2] (setting [6]).

As for `CC(=O)N/N=C(/[C@H](CC(C)C)NC(=O)[C@H](Cc1ccccc1)NC(=O)[C@H](CC(C)C)NC(=O)[C@H](CCc1ccccc1)NC(=O)CN1CCOCC1)[C@@]1(C)CO1`, the half-maximal inhibitory concentration (IC50) in data set [1] (setting [5]) came to 678 nM; in data set [2] (setting [7]), 2180 nM.

With `COCCOCCOCCOCCC(=O)N/N=C(/[C@H](CC(C)C)NC(=O)[C@H](Cc1ccccc1)NC(=O)[C@H](CC(C)C)NC(=O)[C@H](CCc1ccccc1)NC(=O)CN1CCOCC1)[C@@]1(C)CO1`, the half-inhibitory concentration (IC50) in data set [2] (setting [7]) was 3240 nM.

As for `CC(C)C[C@H](NC(=O)[C@H](CCc1ccccc1)NC(=O)CN1CCOCC1)C(=O)N[C@@H](Cc1ccccc1)C(=O)N[C@@H](CC(C)C)/C(=N/O)[C@@]1(C)CO1`, the values for the IC50 in data set [1] (setting [8]) and in data set [2] (setting [7]) were 279 nM and 2290 nM, respectively.

Consider `CO/N=C(/[C@H](CC(C)C)NC(=O)[C@H](Cc1ccccc1)NC(=O)[C@H](CC(C)C)NC(=O)[C@H](CCc1ccccc1)NC(=O)CN1CCOCC1)[C@@]1(C)CO1`, for which the half-maximal inhibitory concentration (IC50) in data set [1] (setting [8]) came out at 2610 nM.

For the compound `CC(C)C[C@H](NC(=O)[C@H](CCc1ccccc1)NC(=O)CN1CCOCC1)C(=O)N[C@@H](Cc1ccccc1)C(=O)N[C@@H](CC(C)C)/C(=N/OCc1ccccc1)[C@@]1(C)CO1`, the IC50 in data set [1] (setting [5]) was 539 nM; in data set [2] (setting [6]), 2180 nM.

Take `CC(C)C[C@H](NC(=O)[C@H](CCc1ccccc1)NC(=O)CN1CCOCC1)C(=O)N[C@@H](Cc1ccccc1)C(=O)N[C@@H](CC(C)C)C(=O)[C@](C)(O)COS(C)(=O)=O`: the IC50 in data set [1] (setting [5]) worked out at 37.7 nM; in data set [2] (setting [6]) it was 98.7 nM.

`Cc1ccc(S(=O)(=O)OC[C@@](C)(O)C(=O)[C@H](CC(C)C)NC(=O)[C@H](Cc2ccccc2)NC(=O)[C@H](CC(C)C)NC(=O)[C@H](CCc2ccccc2)NC(=O)CN2CCOCC2)cc1`: the IC50 in data set [1] (setting [5]) came to 73.7 nM; in data set [2] (setting [6]) it was 316 nM.

In the case of `CC(C)C[C@H](NC(=O)[C@H](CCc1ccccc1)NC(=O)CN1CCOCC1)C(=O)N[C@@H](Cc1ccccc1)C(=O)N[C@@H](CC(C)C)C(=O)[C@](C)(O)CCl`, the figures for the concentration for half-maximal inhibition (IC50) in data set [1] (setting [5]) and in data set [2] (setting [6]) were 615 nM and 143 nM, respectively.

As to `CC(C)C[C@H](NC(=O)[C@H](CCc1ccccc1)NC(=O)CN1CCOCC1)C(=O)N[C@@H](Cc1ccccc1)C(=O)N[C@@H](CC(C)C)C(=O)[C@](C)(O)COn1nnc2ccccc21`, the IC50 worked out at 2470 nM in data set [1] (setting [8]) and 2820 nM in data set [2] (setting [7]).

For `CC(=O)OC[C@@](C)(O)C(=O)[C@H](CC(C)C)NC(=O)[C@H](Cc1ccccc1)NC(=O)[C@H](CC(C)C)NC(=O)[C@H](CCc1ccccc1)NC(=O)CN1CCOCC1`, the IC50 in data set [1] (setting [8]) was 2440 nM; in data set [2] (setting [6]), 8190 nM.

As for `CC(C)C[C@H](NC(=O)[C@H](CCc1ccccc1)NC(=O)CN1CCOCC1)C(=O)N[C@@H](Cc1ccccc1)C(=O)N[C@@H](CC(C)C)C(=O)[C@](C)(O)COC(=O)c1c(Cl)cccc1Cl`, the IC50 in data set [2] (setting [6]) was found to be 660 nM.

For `CC(C)C[C@H](NC(=O)[C@H](CCc1ccccc1)NC(=O)CN1CCOCC1)C(=O)N[C@@H](Cc1ccccc1)C(=O)N[C@@H](CC(C)C)C(=O)[C@](C)(O)COP(=O)(c1ccccc1)c1ccccc1`, the IC50 in data set [1] (setting [5]) amounted to 2670 nM; in data set [2] (setting [7]), 2550 nM.

With `COC[C@H](NC(=O)c1cnc(C)s1)C(=O)N[C@@H](COC)C(=O)N[C@@H](Cc1ccccc1)/C(=N/OC)[C@@]1(C)CO1`, in data set [1] (IC50 60 minute point c20s, Table H, 60 minute point, value marked * (Table G: did not converge)), the IC50 came out at 2560 nM. For the same compound, the “IC50 60 minute point i20s” value in data set [2] (Table H, 60 minute point) was “inactive”.

Take `COC[C@H](NC(=O)c1cnc(C)s1)C(=O)N[C@@H](COC)C(=O)N[C@@H](Cc1ccccc1)C(=O)[C@](C)(O)COS(C)(=O)=O`: the concentration for half-maximal inhibition (IC50) amounted to 459 nM in data set [1] (setting [9]), 103 nM in data set [1] (setting [10]), 614 nM in data set [2] (setting [11]) and 179 nM in data set [2] (setting [12]).

Consider `COC[C@H](NC(=O)c1cnc(C)s1)C(=O)N[C@@H](COC)C(=O)N[C@@H](Cc1ccccc1)C(=O)[C@](C)(O)COS(=O)(=O)c1ccc(C)cc1`, for which the 50% inhibitory concentration (IC50) worked out at 748 nM in data set [1] (setting [9]), 141 nM in data set [1] (setting [10]), 637 nM in data set [2] (setting [11]) and 252 nM in data set [2] (setting [12]).

As for `COC[C@H](NC(=O)c1cnc(C)s1)C(=O)N[C@@H](COC)C(=O)N[C@@H](Cc1ccccc1)C(=O)[C@](C)(O)COC(C)=O`, the “IC50 60 minute point c20s” value in data set [1] (Table H, 60 minute point) was “inactive”. Moreover, the “IC50 60 minute point i20s” value in data set [2] (Table H, 60 minute point) is “inactive”.

For `COC[C@H](NC(=O)c1cnc(C)s1)C(=O)N[C@@H](COC)C(=O)N[C@@H](Cc1ccccc1)C(=O)[C@](C)(O)COC(=O)c1c(Cl)cccc1Cl`, in data set [1] (Table H, 60 minute point), the “IC50 60 minute point c20s” value was “inactive”. The “IC50 60 minute point i20s” value in data set [2] (Table H, 60 minute point) is “inactive”.

Regarding `COC[C@H](NC(=O)c1cnc(C)s1)C(=O)N[C@@H](COC)C(=O)N[C@@H](Cc1ccccc1)C(=O)[C@](C)(O)COP(=O)(c1ccccc1)c1ccccc1`, the “IC50 60 minute point c20s” value in data set [1] (Table H, 60 minute point) was “inactive”. The “IC50 60 minute point i20s” value in data set [2] (Table H, 60 minute point) is “inactive”.

For the compound `COC[C@H](NC(=O)c1cnc(C)s1)C(=O)N[C@@H](COC)C(=O)N[C@@H](Cc1ccccc1)C(=O)[C@](C)(O)CI` [20-1], the “Buffer pH = 7.4 % Conversion @ 1 hour” value in data set [3] was found to be 24%.

For the compound `COC[C@H](NC(=O)c1cnc(C)s1)C(=O)N[C@@H](COC)C(=O)N[C@@H](Cc1ccccc1)C(=O)[C@](C)(O)CCl` [20-2], the “Buffer pH = 7.4 % Conversion @ 1 hour” value in data set [3] is on record as 0%.

In the case of `COC[C@H](NC(=O)c1cnc(C)s1)C(=O)N[C@@H](COC)C(=O)N[C@@H](Cc1ccccc1)C(=O)[C@](C)(O)CBr` [20-3], the “Buffer pH = 7.4 % Conversion @ 1 hour” value in data set [3] stood at 23%.

For the compound `COC[C@H](NC(=O)c1cnc(C)s1)C(=O)N[C@@H](COC)C(=O)N[C@@H](Cc1ccccc1)C(=O)[C@](C)(O)COS(=O)(=O)CC(F)F` [20-6], the “Buffer pH = 7.4 % Conversion @ 1 hour” value in data set [3] amounted to 5.7%.

Consider `CCCCS(=O)(=O)OC[C@@](C)(O)C(=O)[C@H](Cc1ccccc1)NC(=O)[C@H](COC)NC(=O)[C@H](COC)NC(=O)c1cnc(C)s1` [20-7], for which the “Buffer pH = 7.4 % Conversion @ 1 hour” value in data set [3] is 4.2%.

As for `COC[C@H](NC(=O)c1cnc(C)s1)C(=O)N[C@@H](COC)C(=O)N[C@@H](Cc1ccccc1)C(=O)[C@@](C)(CI)OC(=O)CCCCSC(C)=O` [20-10], in data set [4], the “Human Liver S9 % Conversion @ 1 hour” value is given as 3%.

With `COC[C@H](NC(=O)c1cnc(C)s1)C(=O)N[C@@H](COC)C(=O)N[C@@H](Cc1ccccc1)C(=O)[C@@](C)(CI)OC(=O)CCCOC(C)=O` [20-13], in data set [4], the “Human Liver S9 % Conversion @ 1 hour” value worked out at 11%.

In the case of `COC[C@H](NC(=O)c1cnc(C)s1)C(=O)N[C@@H](COC)C(=O)N[C@@H](Cc1ccccc1)C(=O)[C@@](C)(CI)OC(=O)OCc1oc(=O)oc1C` [20-15], the “Human Liver S9 % Conversion @ 1 hour” value in data set [4] came out at 30%.

For the compound `CCOC(=O)C(=O)O[C@](C)(CI)C(=O)[C@H](Cc1ccccc1)NC(=O)[C@H](COC)NC(=O)[C@H](COC)NC(=O)c1cnc(C)s1` [20-16], in data set [4], the “Human Liver S9 % Conversion @ 1 hour” value was found to be 24%.

Consider `CCOC(=O)CCC(=O)O[C@](C)(CI)C(=O)[C@H](Cc1ccccc1)NC(=O)[C@H](COC)NC(=O)[C@H](COC)NC(=O)c1cnc(C)s1` [20-17], for which the “Human Liver S9 % Conversion @ 1 hour” value in data set [4] was 1%.

As for `COC[C@H](NC(=O)c1cnc(C)s1)C(=O)N[C@@H](COC)C(=O)N[C@@H](Cc1ccccc1)C(=O)[C@@](C)(CI)OC(=O)COc1ccccc1` [20-19], the “Human Liver S9 % Conversion @ 1 hour” value in data set [4] worked out at 7%.

As for `COC[C@H](NC(=O)c1cnc(C)s1)C(=O)N[C@@H](COC)C(=O)N[C@@H](Cc1ccccc1)C(=O)[C@@](C)(CI)OC(=O)OCc1ccc(OC(C)=O)cc1` [20-22], the “Human Liver S9 % Conversion @ 1 hour” value in data set [4] came out at 28%.

Take `COC[C@H](NC(=O)c1cnc(C)s1)C(=O)N[C@@H](COC)C(=O)N[C@@H](Cc1ccccc1)C(=O)[C@@](C)(CI)OC(=O)CCl` [20-23]: the “Human Liver S9 % Conversion @ 1 hour” value in data set [4] was determined as 22%.

For the compound `COC[C@H](NC(=O)c1cnc(C)s1)C(=O)N[C@@H](COC)C(=O)N[C@@H](Cc1ccccc1)C(=O)[C@@](C)(CI)OC=O` [20-24], in data set [4], the “Human Liver S9 % Conversion @ 1 hour” value came to 29%.

For the compound `CCOC(=O)O[C@](C)(CI)C(=O)[C@H](Cc1ccccc1)NC(=O)[C@H](COC)NC(=O)[C@H](COC)NC(=O)c1cnc(C)s1` [20-25], the “Human Liver S9 % Conversion @ 1 hour” value in data set [4] stood at 14%.

As to `COC[C@H](NC(=O)c1cnc(C)s1)C(=O)N[C@@H](COC)C(=O)N[C@@H](Cc1ccccc1)C(=O)[C@@](C)(CI)OC(=O)Oc1ccccc1` [20-26], the “Human Liver S9 % Conversion @ 1 hour” value in data set [4] came to 32%.

Take `COC[C@H](NC(=O)c1cnc(C)s1)C(=O)N[C@@H](COC)C(=O)N[C@@H](Cc1ccccc1)C(=O)[C@](C)(O)COS(=O)(=O)C1CCOCC1` [compound 22]: the “Buffer pH = 7.4 % Conversion @ 1 hour” value in data set [3] was 9.8%.

For the compound `COC[C@H](NC(=O)c1cnc(C)s1)C(=O)N[C@@H](COC)C(=O)N[C@@H](Cc1ccccc1)C(=O)[C@](C)(O)COS(=O)(=O)Cc1ccccc1` [compound 23], in data set [3], the “Buffer pH = 7.4 % Conversion @ 1 hour” value turned out to be 9.6%.

For the compound `COC[C@H](NC(=O)c1cnc(C)s1)C(=O)N[C@@H](COC)C(=O)N[C@@H](Cc1ccccc1)C(=O)[C@](C)(O)COS(=O)(=O)C1CCOCC1` [drawing 373], the half-maximal inhibitory concentration (IC50) in data set [1] (setting [10]) is 193 nM; in data set [2] (Table H, value marked * (Table G: did not converge), read-out: IC50 Slope i20s) it was 278 nM.

On to `COC[C@H](NC(=O)c1cnc(C)s1)C(=O)N[C@@H](COC)C(=O)N[C@@H](Cc1ccccc1)C(=O)[C@](C)(O)COS(=O)(=O)Cc1ccccc1` [drawing 374], for which the IC50 in data set [1] (setting [10]) stood at 95.4 nM.
